# Source: US20260130933A1, “PHARMACEUTICAL COMPOSITION FOR PREVENTION OR TREATMENT OF NEPHROPATHY AND/OR DIABETES MELLITUS, COMPRISING ENAVOGLIFLOZIN” (DAEWOONG PHARMACEUTICAL CO., LTD., priority 2022, published 2026)
# Experiment: Example 2: phase 3 trial, enavogliflozin 0.3 mg vs dapagliflozin 10 mg once a day for 24 weeks added to metformin in patients with type 2 diabetes (same efficacy, exploratory and safety endpoints)
# Assay type: in vivo, human
# Procedure: Subjects who met the inclusion/exclusion criteria were administered a placebo of the clinical trial drug under single-blind (subject blinding) conditions during a 2-week run-in period while continuing to receive metformin. […] The randomized subjects were administered two tablets of the clinical trial drug for each administration group once a day, and then visited the institution at weeks 6, 12, 18, and 24 during the 24-week administration period to conduct efficacy and safety evaluations.
# • 1. Change in HbA1c at week 24 after administration of clinical trial drug compared to Visit 2 (randomization)
# • 1. Change in HbA1c at each time point of weeks 6, 12, and 18 after administration of clinical trial drug compared to Visit 2 (randomization) • 2. Change in FPG at each time point of weeks 6, 12, 18, and 24 after administration of clinical trial drug compared to Visit 2 (randomization) • 3. Proportion of subjects achieving HbA1c<7% at each time point of weeks 6, 12, 18, and 24 after administration of clinical trial drug • 4. Proportion of subjects achieving HbA1c<6.5% at each time point of weeks 6, 12, 18, and 24 after administration of clinical trial drug • 5. Proportion of subjects achieving therapeutic response (HbA1c change (HbA1c at Visit 2-HbA1c at each evaluation time point)>0.5% or HbA1c<7% at each evaluation time point compared to Visit 2 (randomization)) at each time point of weeks 6, 12, 18 and 24 after administration of clinical trial drug
# • 1. Change in fasting c-peptide at each time point of weeks 6, 12, 18, and 24 after administration of clinical trial drug compared to Visit 2 (randomization) • 2. Change in body weight at each time point of weeks 6, 12, 18, and 24 after administration of clinical trial drug compared to Visit 2 (randomization) • 3. Change in fasting lipid concentration (total cholesterol, LDL-C, HDL-C, and triglycerides) at each time point of weeks 6, 12, 18, and 24 after administration of clinical trial drug compared to Visit 2 (randomization) • 4. Changes in systolic or diastolic blood pressure at each time point of weeks 6, 12, 18, and 24 after administration of clinical trial drug compared to Visit 2 (randomization) • 5. Changes in β-cell function and insulin resistance measured by HOMA-β and HOMA-IR at each time point of weeks 6, 12, 18, and 24 after administration of clinical trial drug compared to Visit 2 (randomization) • 6. Changes in renal function-related indicators (UACR, UGCR) measured by UACR at each time point of weeks 6, 12, 18, and 24 after administration of clinical trial drug compared to Visit 2 (randomization) • 7. Changes in obesity-related indicators (adiponectin, leptin) at each time point of weeks 6, 12, 18, and 24 after administration of clinical trial drug compared to Visit 2 (randomization)
# [1] = week 6, modified per-protocol set 1, enavogliflozin 0.3 mg, dapagliflozin 10 mg
# [2] = week 6, per-protocol set, enavogliflozin 0.3 mg, dapagliflozin 10 mg
# [3] = week 12, modified per-protocol set 1, enavogliflozin 0.3 mg, dapagliflozin 10 mg
structure (smiles),measurement,setting,value
"CCOc1ccc(Cc2cc([C@@H]3O[C@H](CO)[C@@H](O)[C@H](O)[C@H]3O)ccc2Cl)cc1 [Dapagliflozin, reference compound]","HOMA-IR, Median","Week 24, PPS",1.82
same,"HOMA-β change from baseline, ANCOVA LS mean (SE)","Week 24, PPS",11.93
same,"HOMA-β change from baseline, Mean (SD)","Week 24, PPS",12.23
same,"HOMA-β change from baseline, Median","Week 24, PPS",5.30
same,"HOMA-β, Mean (SD)","Week 24, PPS",56.67
same,"HOMA-β, Median","Week 24, PPS",46.75
same,"Leptin change from baseline, ANCOVA LS mean (SE)","Week 24, PPS",-1.28 ng/mL
same,"Leptin change from baseline, Mean (SD)","Week 24, PPS",-1.31 ng/mL
same,"Leptin change from baseline, Median","Week 24, PPS",-1.17 ng/mL
same,"Leptin, Mean (SD)","Week 24, PPS",10.37 ng/mL
same,"Leptin, Median","Week 24, PPS",6.69 ng/mL
same,"UACR change from baseline, ANCOVA LS mean (SE)","Week 24, PPS",-17.37 g/kg
same,"UACR change from baseline, Mean (SD)","Week 24, PPS",-25760 mg/kg
same,"UACR change from baseline, Median","Week 24, PPS",-1.70 g/kg
same,"UACR, Mean (SD)","Week 24, PPS",31370 mg/kg
same,"UACR, Median","Week 24, PPS",11.10 g/kg
same,"UGCR change from baseline, ANCOVA LS mean (SE)","Week 24, PPS",44.94 mg/mg
same,"UGCR change from baseline, Mean (SD)","Week 24, PPS",43.01 mg/mg
same,"UGCR change from baseline, Median","Week 24, PPS",42.01 mg/mg
same,"UGCR, Mean (SD)","Week 24, PPS",45.27 mg/mg
same,"UGCR, Median","Week 24, PPS",43.81 mg/mg
same,"HDL-C change from baseline, ANCOVA LS mean (SE)","Week 24, mPPS1",3.19(0.66) mg/dL
same,"HDL-C change from baseline, Mean (SD)","Week 24, mPPS1",3.55(5.30) mg/dL
same,"HDL-C change from baseline, Median","Week 24, mPPS1",3.00 mg/dL
same,"HDL-C, Mean (SD)","Week 24, mPPS1",50.45(9.72) mg/dL
same,"HDL-C, Median","Week 24, mPPS1",50.00 mg/dL
same,"LDL-C change from baseline, ANCOVA LS mean (SE)","Week 24, mPPS1",0.93(1.98) mg/dL
same,"LDL-C change from baseline, Mean (SD)","Week 24, mPPS1",2.68(20.64) mg/dL
same,"LDL-C change from baseline, Median","Week 24, mPPS1",2.00 mg/dL
same,"LDL-C, Mean (SD)","Week 24, mPPS1",78.84(25.81) mg/dL
same,"LDL-C, Median","Week 24, mPPS1",76.00 mg/dL
same,"Triglycerides change from baseline, ANCOVA LS mean (SE)","Week 24, mPPS1",−6.70(5.28) mg/dL
same,"Triglycerides change from baseline, Mean (SD)","Week 24, mPPS1",−10.64(52.51) mg/dL
same,"Triglycerides change from baseline, Median","Week 24, mPPS1",-7.00 mg/dL
same,"Triglycerides, Mean (SD)","Week 24, mPPS1",122.28(58.14) mg/dL
same,"Triglycerides, Median","Week 24, mPPS1",110.00 mg/dL
same,"Diastolic blood pressure change from baseline, ANCOVA LS mean (SE)","Week 24, mPPS2",−4.26 mmHg
same,"Diastolic blood pressure change from baseline, Mean (SD)","Week 24, mPPS2",−3.87 mmHg
same,"Diastolic blood pressure change from baseline, Median","Week 24, mPPS2",−4.00 mmHg
same,"Diastolic blood pressure, Mean (SD)","Week 24, mPPS2",72.05 mmHg
same,"Diastolic blood pressure, Median","Week 24, mPPS2",71.00 mmHg
same,"Systolic blood pressure change from baseline, ANCOVA LS mean (SE)","Week 24, mPPS2",−6.57(1.04) mmHg
same,"Systolic blood pressure change from baseline, Mean (SD)","Week 24, mPPS2",−6.03(12.13) mmHg
same,"Systolic blood pressure change from baseline, Median","Week 24, mPPS2",−7.00 mmHg
same,"Systolic blood pressure, Mean (SD)","Week 24, mPPS2",121.40(11.90) mmHg
same,"Systolic blood pressure, Median","Week 24, mPPS2",122.00 mmHg
same,"FPG change from baseline, LS mean (SE)",week 6,−23.81(2.23) mg/dL
same,"HOMA-IR change from baseline, LS mean (SE)",week 6,−1.31(0.15)
same,"HOMA-β change from baseline, LS mean (SE)",week 6,−1.79(5.59)
same,"HbA1c change from baseline, LS mean (SE)",week 6,−0.63(0.04) % p
same,"LDL-C change from baseline, LS mean (SE)",week 6,4.20(1.95) mg/dL
same,Subjects achieving HbA1c target of <7%,week 6,(51.69) %
same,Subjects achieving HbA1c<6.5%,week 6,14.61%
same,Subjects achieving therapeutic response (HbA1c change >0.5% or HbA1c<7%),week 6,79.78%
same,"UACR change from baseline, LS mean (SE)",week 6,8.13(10.88) g/kg
same,"UGCR change from baseline, LS mean (SE)",week 6,50.10(2.80) mg/mg
same,"diastolic blood pressure change from baseline, LS mean (SE)",week 6,−1.47(0.72) mmHg
same,"fasting c-peptide change from baseline, LS mean (SE)",week 6,−0.07(0.02) ng/ml
same,"leptin change from baseline, LS mean (SE)",week 6,−1.62(0.47) ng/mL
same,Subjects achieving HbA1c target of <7%,"week 6, listed as dapagliflozin",51.69%
same,"Change from baseline in Total cholesterol, ANCOVA LS mean (SE)",[1],6.87(2.27) mg/dL
same,"Change from baseline in Total cholesterol, Mean (SD)",[1],7.71(22.44) mg/dL
same,"Change from baseline in total cholesterol, Median",[1],7.00 mg/dL
same,"fasting Total cholesterol, Mean (SD)",[1],145.62(31.91) mg/dL
same,"fasting Total cholesterol, Median",[1],145.50 mg/dL
same,"Change from baseline in FPG, ANCOVA LS mean (SE)",[2],-23.81 mg/dL
same,"Change from baseline in FPG, Mean (SD)",[2],-24.90 mg/dL
same,"Change from baseline in FPG, Median",[2],-24.00 mg/dL
same,"Change from baseline in HbA1c, ANCOVA LS mean (SE)",[2],−0.63 % p
same,"Change from baseline in HbA1c, Mean (SD)",[2],−0.58 % p
same,"Change from baseline in HbA1c, Median",[2],−0.59 % p
same,"Change from baseline in body weight, ANCOVA LS mean (SE)",[2],−1.61(0.21) kg
same,"Change from baseline in body weight, Mean (SD)",[2],−1.60(1.25) kg
same,"Change from baseline in body weight, Median",[2],-1.50 kg
same,"Change from baseline in fasting c-peptide, ANCOVA LS mean (SE)",[2],−0.07(0.02) ng/mL
same,"Change from baseline in fasting c-peptide, Mean (SD)",[2],−0.07(0.18) ng/mL
same,"Change from baseline in fasting c-peptide, Median",[2],-0.07 ng/mL
same,"FPG, Mean (SD)",[2],124.37 mg/dL
same,"FPG, Median",[2],122.00 mg/dL
same,"HbA1c, Mean (SD)",[2],7.10%
same,"HbA1c, Median",[2],6.98%
same,"Subjects achieving HbA1c target of <6.5%, (%)",[2],(14.61) %
same,"Subjects achieving therapeutic glycemic response, (%)",[2],(79.78) %
same,"body weight, Mean (SD)",[2],68.88(11.86) kg
same,"body weight, Median",[2],66.90 kg
same,"fasting c-peptide, Mean (SD)",[2],0.66(0.20) ng/mL
same,"fasting c-peptide, Median",[2],0.63 ng/mL
same,"FPG change from baseline, LS mean (SE)",week 12,−30.11(2.03) mg/dL
same,"HOMA-IR change from baseline, LS mean (SE)",week 12,−1.60(0.17)
same,"HOMA-β change from baseline, LS mean (SE)",week 12,8.75(3.15)
same,"HbA1c change from baseline, LS mean (SE)",week 12,−0.79(0.05) % p
same,"LDL-C change from baseline, LS mean (SE)",week 12,0.56(1.73) mg/dL
same,Subjects achieving HbA1c target of <7%,week 12,(63.64) %
same,Subjects achieving HbA1c<6.5%,week 12,26.14%
same,Subjects achieving therapeutic response (HbA1c change >0.5% or HbA1c<7%),week 12,79.55%
same,"UACR change from baseline, LS mean (SE)",week 12,−3.38(7.57) g/kg
same,"UGCR change from baseline, LS mean (SE)",week 12,45.14(2.66) mg/mg
same,"diastolic blood pressure change from baseline, LS mean (SE)",week 12,−4.35(0.81) mmHg
same,"fasting c-peptide change from baseline, LS mean (SE)",week 12,−0.09(0.02) ng/ml
same,"leptin change from baseline, LS mean (SE)",week 12,−2.70(0.51) ng/mL
same,Subjects achieving HbA1c target of <7%,"week 12, listed as dapagliflozin",63.64%
same,"Change from baseline in Total cholesterol, ANCOVA LS mean (SE)",[3],4.25(2.04) mg/dL
same,"Change from baseline in Total cholesterol, Mean (SD)",[3],5.47(18.88) mg/dL
same,"Change from baseline in total cholesterol, Median",[3],5.00 mg/dL
